Assay results published in patent publication US20030153081A1, “Viral core protein-cationic lipid-nucleic acid-delivery complexes” (priority 1999, published 2003).

Columns and labels:
HeLa cells = test: β-galactosidase assay, alternative cationic peptides in HeLa cells; type: cell-based, human; settings: DC-Chol:DOPE liposome:peptide:DNA 12:0.6:1, 30 min, DNA 1.0 μg/ml
Procedure: In order to examine the effects of various alternative cationic peptides on transfection activities, a series of liposome:cationic peptide:DNA complexes were prepared and their relative transfection abilities analysed in vitro. The peptides used were poly-lysine hydrochloride (average molecular weight 3970, Sigma), poly arginine hydrochloride (average molecular weight 11800, Sigma) a peptide derived from protein V, pV (p5, sequence shown below), a peptide analogue of Mu1 (V, sequence shown below) and Mu1 peptide itself. The p5 peptide and V peptide were synthesized using the same solid-phase peptide synthesis methodology as was used to prepare Mu1 peptide.
Each peptide was combined with cationic liposome (DC-Chol:DOPE 3:2 m/m) and DNA (pCMVβ) in the liposome:peptide:DNA ratio of 12:0.6:1 (w/w/w) as described in Example 4. The transfection activities were examined using HeLa cells (human epithelial cells). The cells were seeded at an approximate density of 5×10^4 per well in a 24-well culture plate in DMEM supplemented with 10% FCS and grown for 24 h in the presence of 5% CO2 at 37° C. Cells were washed by brief exposure to DMEM and then treated with solutions containing LMD or LD complexes, prediluted with OPTIMEM (Gibco) (final DNA concentration 1.0 μg/ml in all cases), for 30 min. Cells were then washed again and incubated for a further 48 h in DMEM supplemented with 10% FCS prior to harvesting. The level of β-galactosidase enzyme activity was determined with a standard assay kit (chemiluminescent, Roche).

ND7 cells = test: β-galactosidase reporter gene assay, transfection of undifferentiated ND7 cells; type: cell-based, rat/mouse
Procedure: ND7 cells were seeded at a density of 5 ×10^4 cells/well in 24 well culture dishes 24 hrs prior to transfection. Immediately prior to transfection, cells were washed in serum-free media. Complexes were formed by incubating pCMVβ with Mu1 prior to the addition of the cationic liposome DC-Chol/DOPE. In each case 1 μg pCMVβ was complexed with 0.6, 6, 12, and 21 μg Mu1 peptide. Each of these combinations was then complexed with 3, 4 and 6 μg DC-Chol/DOPE. ND7 cells were exposed to transfection complexes for 2 hours then maintained at 37° C., 5% CO2 for another 24 hrs before being harvested and processed for β-galactosidase enzyme assay. Numbers represent means±SD, n=3.
pCMVβ plasmid DNA was complexed to various amounts of polycationic peptide and then mixed with cationic liposome at a ratio of 1:3 (pCMVβ:liposome; w/w). After being washed briefly in serum free media, ND7 cells were exposed to the […] complexes for two hours and then returned to serum containing media Twenty-four hours later the cells were harvested and processed for β-galactosidase enzyme assay. Each condition was performed in triplicate and each experiment replicated three times. Numbers represent means±SD.
ND7s are a well-characterized cell line derived from the fusion of a neuroblastoma N18Tg2) with neonatal rat sensory neurons ^28. The cell line was maintained in normal growth media (NGM) (Leibovitz's L-15 media (BRL) enriched with 10% Fetal bovine serum (BRL), 4 g/L glucose, 4 g/L sodium bicarbonate (BRL), 100 IU/mL penicillin/streptomycin (BRL)) at 37° C. and 5% CO2. The cells were plated onto 24 well plates (Costar) at a density that produced 70% confluence after 24 hours.
Since initial experiments determined that the presence of fetal bovine serum inhibited transfection of ND7 cells serum-free differentiation media was used for all transfections. Various amounts of DNA and liposome were placed in the bottom of a 7 mL sterile Bijou container (Bibby Sterilin Ltd., Staffordshire, U.K.), but not in contact with each other.
DNA and liposomes were combined by the addition of 400 μL serum-free differentiation media and gentle shaking. The DNA: liposome mixture was incubated at room temperature for 20 to 30 minutes before being applied to the cells. The DNA/liposome mixture was then applied to the cells and incubated at 37° C., 5% CO2 for 2 hours after which this media was replaced with complete media Twenty four to 48 hours later the cells were fixed and processed for X-gal histochemistry as described ^31 or harvested for β-galactosidase enzyme assays (Promega Corp.).
Transfection complexes including the test peptides were generated in the following manner. Various amounts of peptide was placed in the bottom of sterile polystyrene containers alongside, but not in contact with 1 μg·pCMVβ and mixed by adding 400 μl serum free NGM media The complexes were incubated at room temperature for 10 minutes after which DC-Chol/DOPE was added. The pDNA/peptide/liposome complex was further incubated at room temperature for 20 minutes and then administered to cells as above.
We examined the ability of Mu1 and Vp1 to enhance the transfection of a neuronal cell line by cationic liposomes using a β-Galactosidase reporter gene assay. ND7 cells were transfected with pCMVβ complexed to varying amounts of peptide and DC-Chol/DOPE. We have previously shown that the cationic liposome DC-Chol/DOPE is capable of efficiently transfecting the neuronally derived ND7 cell line ^31. […] Temporally, maximal levels of transgene expression are obtained between 48-60 hours post transfection. Therefore, in order to maximize the chance of detecting improvements in transfection we performed all our assays within 12-20 hours of transfection at a time when levels of reporter gene expression were lower. Previously we found a pDNA: liposome ratio of 1:3 (w/w) optimal for transfections in ND7 cells ^31. […]

COS-7 cells = test: β-galactosidase enzyme assay, transfection of COS-7 cells; type: cell-based, Green Monkey; settings: COS-7, same pDNA:Mu1:liposome ratio as optimal for ND7
Procedure: COS cells were seeded at a density of 60-80% confluence in 24 well culture dishes 24 hrs prior to transfection. Immediately prior to transfection, cells were washed in serum-free media Incubating pCMVβ with Mu1 prior to the addition of the cationic liposome DC-Chol/DOPE formed complexes capable of cellular transfection. In each case 1 μg pCMVβ was complexed with 12 μg Mu1 peptide that had been found optimal for ND7 cells. The pCMVβ:Mu1 complexes were then mixed with 3, 4 and 6 μg DC-Chol/DOPE. COS cells were exposed to transfection complexes for 2 hours then maintained at 37° C., 5% CO2 for another 24 hrs before being harvested and processed for β-galactosidase enzyme assay. Numbers represent means±SD, n=3.
COS-7 cells (derived from Green Monkey kidney) were grown in RPMI 1640 media (BRL) supplemented with 10% fetal bovine serum (BRL) and 100 IU/mL penicillin/streptomycin (BRL).
In order to see whether improved transfections could be achieved in other cell types we performed a similar analysis on COS-7 cells. […] The same ratio of pDNA:Mu1:liposome optimal for ND7 cells was best for COS-7, cells. A similar degree of improvement was also seen (3.7 fold) over cationic liposomes alone.

H-MRRAHHRRRRASHRRMRGG-OH [Mu1]
transfection activity compared to poly lysine and poly arginine complexes (HeLa cells): excellent transfection activity
concentration in solution, optimal transfections (ND7 cells; 12 μg Mu1/1 μg pCMVβ, 400 μL): 30 ng/mL
relative ratios pCMVβ/Mu1/(DC-Chol/DOPE) giving greatest improvement in transfection efficiencies (ND7 cells; 0.6-21 μg Mu1, 3-6 μg liposome per 1 μg pCMVβ tested): 1/12/6
increase in transfections compared to DNA alone (ND7 cells; 1/12/6 pCMVβ/Mu1/(DC-Chol/DOPE) w/w/w): 11 fold
concentration of protein in the cellular lysates vs untransfected cells (ND7 cells; Mu1 complex (data not shown)): did not significantly vary
improvement in transfection efficiencies over naked DNA (ND7 cells; pCMVβ complexed to Mu1 alone, no liposome): No improvement in transfection efficiencies over naked DNA
effect on transfection efficiencies (ND7 cells; pDNA:Mu1 1:0.5 (w/w) with liposomes, initial experiments (not shown)): did not affect transfection efficiencies
improvement of cationic liposome mediated transfection efficiencies (ND7 cells; β-galactosidase activity, Mu1 with DC-Chol/DOPE vs liposome without Mu1): over 4 fold
improvement over cationic liposomes alone (COS-7 cells): 3.7 fold
